According to PMC5071372, “Combining biophysical methods to analyze the disulfide bond in SH2 domain of C-terminal Src kinase” (Biophysics Reports, 2016):
Square brackets hold non-standard residues; d marks the D form. Peptide text beside a SMILES is read from it. pY = N[C@@H](Cc1ccc(OP(=O)(O)O)cc1)C(=O)O

Legend:
reduced Csk L-SH2 = biological target: T1, reduced Csk L-SH2 (Homo sapiens, UniProt P41240); test: Fluorescence titration of reduced Csk L-SH2 with Cbp peptide; format: binding; settings: 10-residue Cbp peptide, Csk SH2, redox form not given
T1 construct: made in house
T1 sequence (P41240 73-178): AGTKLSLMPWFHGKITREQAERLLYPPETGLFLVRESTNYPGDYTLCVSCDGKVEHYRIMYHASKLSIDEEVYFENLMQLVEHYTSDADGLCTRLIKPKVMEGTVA
Experimental: Fluorescence titrations were performed at 25 °C in 3 mL of 50 mmol/L Tris-HCl (pH 7.5) using excitation and emission wavelengths of 288 nm and 320 nm, respectively. The 10-residue synthetic phosphopeptide corresponding to the specific SH2-binding site in Cbp was titrated with the L-SH2 sample. The typically adopted protein concentration is 5 μmol/L. For the denaturation experiments, ultrapure guanidine hydrochloride (Sigma S0933) was used. Proteins were exposed to guanidine hydrochloride concentrations ranging from 0 to 6 mol/L at 0.1–0.2 mol/L steps. The concentrations of guanidine hydrochloride of the solutions were determined by measuring the index of refraction and by using the following equation: d/d 0 = 1 + 0.2710 W + 0.0330 W ^2 (Tanford et al. [1966]), where W is the weight fraction of guanidine hydrochloride in the solution, d is the density of the solution, and d 0 is the density of water. Reversibility of the guanidine hydrochloride-induced unfolding reaction and the time necessary to re-establish equilibrium were determined by diluting a concentrated protein solution containing 6 mol/L guanidine hydrochloride into the buffer and by monitoring the fluorescence spectrum of the protein as a function of time. […] F unf values were calculated from the linear extrapolation of the pre- and post-unfolding baselines. […]

Csk L-SH2 disulfide bond = test: NMR-monitored reduction of oxidized SH2 by DTT; format: physicochemical, human; settings: 10 mmol/L DTT, pH 7.5, NMR
From the text: During purification of the Csk L-SH2 domain, 50 mmol/L DTT was used to elute the protein from the chitin resin. The L-SH2 was used in reduced form, given that DTT was used to cleave L-SH2 from its intein fusion partner. Following elution of the protein from the ion exchange column, the L-SH2 became a mixture of the reduced and oxidized forms. The fully oxidized form was obtained by exposing the protein to air for several days.
Fig. 3 Comparison of the oxidized and reduced form of SH2. A Comparison of ^1H–^15N HSQC of oxidized (red) and reduced (green) SH2. B Combined chemical shift change of oxidized and reduced form SH2. The difference was calculated as ∆δ tot = [(∆δ H)^2 + (0.154∆δ N)^2]^1/2. […]
All NMR experiments were performed at 298 K on 800 MHz spectrometers equipped with triple-resonance cryoprobes. […] The combined change in chemical shift of a particular residue upon ligation with the kinase domain was calculated as ∆δ = [(∆δ H)^2 + (0.154∆δ N)^2]^1/2, where ∆δ H and ∆δ N correspond to the changes in amide proton and nitrogen chemical shift, respectively. The weight factor for ^1H and ^15N is determined from the ratio of the average variances of the amide nitrogen and proton chemical shifts observed for the 20 common amino acid residues in proteins deposited in the BioMagResBank (Mulder et al. [1999]). […]

full-length Csk = settings: ref Kemble and Sun [2009]; cited from earlier work
From the text: Disulfide bonds are mostly found in secretory proteins and in extracellular domains of membrane proteins. Cytosolic proteins, which contain cysteine residues that are in close proximity to each other, may function as oxidation sensors; when the reductive potential of the cell fails, they oxidize and trigger cellular response mechanisms (Sevier and Kaiser [2002]). Mills et al. studied the unique disulfide bond of Csk SH2 that is absent in other known SH2 domains.

Structure (SMILES)	affinity of Cbp peptide for Csk SH2 (in words) (reduced Csk L-SH2)	time sufficient to reduce the SH2 domain (Csk L-SH2 disulfide bond) [h]	activation of Csk (full-length Csk)
CC[C@H](C)[C@H](N)C(=O)N[C@@H](CO)C(=O)N[C@@H](C)C(=O)N[C@@H](CCSC)C(=O)N[C@@H](Cc1ccc(OP(=O)(O)O)cc1)C(=O)N[C@@H](CO)C(=O)N[C@@H](CO)C(=O)N[C@H](C(=O)N[C@@H](CC(N)=O)C(=O)N[C@@H](CCCCN)C(=O)O)C(C)C [Cbp peptide] (H-ISAM[pY]SSVNK-OH)	affinity at the µmol/L level		
O[C@@H](CS)[C@@H](O)CS [DTT, reference compound]		≤ 10	mildly activated
